How the values were obtained:
Solubility (Table C) = format: physicochemical; details: solvent named in Table C
mice = assay: Inhibition of food intake in mice by HLY72/HLY78 derivatives; format: in vivo, mouse; details: for activity compared with HLY72 / activity relative to Hly72 / effective concentration (EC50) relative to HLY72: food intake; for activity compared with HLY72 / inhibition of food intake in mice: intraperitoneal, 75 umol/kg; for activity relative to Hly72 / effective concentration (EC50) relative to HLY72: compounds 7.5 umol/kg vs Hly72 75 umol/kg; for effective concentration (EC50) relative to HLY72: 5-6 mice per group
Procedure: All compounds are injected intraperitoneally with a concentration of 75 umol/kg (20 mg/kg of Hly72 equals 75 umol/kg). One-way ANOVA statistical analysis, *: P<0.05, **: P⋅<0.01, ***: P<0.001.
All compounds are injected intraperitoneally at a concentration of 75 umol/kg (20 mg/kg of Hly72 equals 75 umol/kg). One-way ANOVA statistics Analysis, *: P<0.05, **: P⋅<0.01, ***: P<0.001.
Intraperitoneal injection of Hly72 at a concentration of 75 umol/kg (20 mg/kg of Hly72 equals 75 umol/kg), Hgsy-98, Hybj-12a, Hybj-13a are all 7.5 umol/kg. One-way ANOVA statistical analysis, *: P<0.05, **: P⋅<0.01, ***: P<0.001.
The next question we are very concerned about is whether HLY78 has similar functions to NUCB2 protein in mice. Up to now, the most classic function reported for NUCB2 protein is to reduce the food intake of mice at night. Therefore, the experiment was designed: 20 mg/kg of HLY78 was injected intraperitoneally within two hours before turning off the lights at night, and then the food intake of the mice was measured at different time points (0-3 h, 0-6 h, 0-12 h, 0-24 h). […] During the three days of the adaptive injection period before HLY78 injection, both groups of mice were injected with DMSO. On the day of injection of HLY78 and the two days before the injection of DMSO, the body weight of the two groups of mice is also the same (FIG. 2b). […]
Experimental methods were the same as in Examples 2 and 4.
Three compounds of Hgsy-98, Hybj-12a and Hybj-13a were selected for re-experiment (5-6 mice per group).

SMILES	Solubility (Solubility (Table C))	inhibition of food intake in mice (mice)	also measured
CCCN1Cc2cc(OC)ccc2-c2cccc(C(C)O)c21 (centres unmarked) [Hgsy-66]	DMSO		
C#CCOc1cc2c(cc1OCC#C)-c1cccc(C)c1N(CC)C2 [Hcj46-d]	DMSO		
C/C=C/c1cccc2c3ccc(OC)cc3c(=O)n(CCCC)c12 [Hgsy-97]	DMSO		
CCCCn1c(=O)c2cc(OC)c(OC)cc2c2cccc(C(C)O)c21 (centres unmarked) [Hgsy-53]	DMSO		
C/C=C/c1cccc2c1N(CCCC)Cc1cc(OC)ccc1-2 [Hgsy-98]	DMSO		activity compared with HLY72 (mice): significantly better; activity relative to Hly72 (mice): about 10 times; effective concentration (EC50) relative to HLY72 (mice): one tenth
Cc1cccc2c1N(C)Cc1cc(O)ccc1-2 [Hcj16]	DMSO	obvious effects	
C/C=C/c1cccc2c3cc(OC)c(OC)cc3c(=O)n(C)c12 [Hgsy-75]	DMSO		
C/C=C/c1cccc2c3cc(OC)c(OC)cc3c(=O)n(CCCC)c12 [Hgsy-80]	DMSO	obvious effects	activity compared with HLY72 (mice): significantly better
C=Cc1cccc2c1N(C)Cc1cc(OCCCC)c(OCCCC)cc1-2 [Hybj-3a]		obvious effects	
COc1cc2c(=O)n(C)c3c(C(C)O)cccc3c2cc1OC (centres unmarked) [Hgsy-56]	DMSO		
CCc1cccc2c1N(C)Cc1cc(OC)ccc1-2 [Hcj12]	DMSO	obvious effects	
C=Cc1cccc2c1N(CCCCCC)Cc1cc3c(cc1-2)OCO3 [Hybj-9a]	DMSO	obvious effects	
C=Cc1cccc2c3cc(OC)c(OC)cc3c(=O)n(C)c12 [Hgsy-58]	DMSO		
C=Cc1cccc2c1N(C)Cc1cc(OCC)c(OCC)cc1-2 [Hybj-2a]		obvious effects	
CCN1Cc2cc(O)ccc2-c2cccc(C)c21 [Hcj36]	DMSO		
C=Cc1cccc2c1N(CCCCCCCCCCCC)Cc1cc3c(cc1-2)OCO3 [Hybj-13a]	DMSO	obvious effects	activity compared with HLY72 (mice): significantly better; activity relative to Hly72 (mice): about 10 times; effective concentration (EC50) relative to HLY72 (mice): one tenth
CCN1Cc2cc(OC)c(OC)cc2-c2cccc(CO)c21 [Hgsy-48]	DMSO		
C=Cc1cccc2c1N(CCCCCCCCCC)Cc1cc3c(cc1-2)OCO3 [Hyj-12a]	DMSO	obvious effects	activity compared with HLY72 (mice): significantly better; activity relative to Hly72 (mice): 30-40 times; effective concentration (EC50) relative to HLY72 (mice): one tenth
CCn1c(=O)c2cc(OC)ccc2c2cccc(OC)c21 [Hgsy-32]	DMSO		
CCn1c(=O)c2cc(OC)c(OC)cc2c2cccc(CO)c21 [Hgsy-36]	DMSO	obvious effects	
CCCCn1c(=O)c2cc(OC)c(OC)cc2c2cccc(C=O)c21 [Hgsy-50]	DMSO	obvious effects	activity compared with HLY72 (mice): significantly better
C/C=C/c1cccc2c3ccc(OC)cc3c(=O)n(C)c12 [Hgsy-89]	DMSO		
C/C=C/c1cccc2c1N(CCCC)Cc1cc(OC)c(OC)cc1-2 [Hgsy-86]	DMSO	obvious effects	
CCn1c(=O)c2cc(OC)c(OC)cc2c2cccc(C3OCCO3)c21 [Hgsy-69]	DMSO		
C/C=C/c1cccc2c1N(C)Cc1cc(OC)c(OC)cc1-2 [Hgsy-78]	DMSO	obvious effects	

SMILES	Solubility (Solubility (Table C))	inhibition of food intake in mice (mice)	also measured
COc1cc2c(cc1OC)-c1cccc(C(C)O)c1N(C)C2 (centres unmarked) [Hgsy-59]	DMSO		
Cc1cccc2c1N(C)Cc1cc(OCc3cc4cc(Cl)ccc4s3)ccc1-2 [Hcj194-d]	DMSO	obvious effects	
COc1cc2c(cc1OC)-c1cccc(OC)c1N(C)C2 [Hgsy-60]	DMSO		
CCn1c(=O)c2cc(OC)ccc2c2cccc(CO)c21 [Hgsy-31]	DMSO		
C=Cc1cccc2c3ccc(OC)cc3c(=O)n(CCC)c12 [Hgsy-68]	DMSO		
C=CC(O)c1cccc2c3ccc(OC)cc3c(=O)n(CC)c12 (centres unmarked) [Hgsy-3]	DMSO		
C/C=C/c1cccc2c1N(C)Cc1cc(OC)ccc1-2 [Hgsy-92-1]	DMSO	obvious effects	
CCCn1c(=O)c2cc(OC)ccc2c2cccc(C(C)O)c21 (centres unmarked) [Hgsy-64]	DMSO		
C=CC(O)c1cccc2c3cc(OC)c(OC)cc3c(=O)n(CC)c12 (centres unmarked) [Hgsy-25]	DMSO		
C=Cc1cccc2c1N(C)Cc1cc(OC)c(OC)cc1-2 [Hybj-1a]	DMSO	obvious effects	
COc1cc2c(cc1OC)-c1cccc(C)c1NC2 [Hcj92-a]	DMSO		
CCCCN1Cc2cc(OC)c(OC)cc2-c2cccc(CO)c21 [Hgsy-44]	DMSO		
CCCCn1c(=O)c2cc(OC)c(OC)cc2c2cccc(CO)c21 [Hgsy-43]	DMSO		
C=Cc1cccc2c1N(CCCCCCCCCCCCCCCCCC)Cc1cc3c(cc1-2)OCO3 [Hyb-17a]	DMSO	obvious effects	activity compared with HLY72 (mice): significantly better
CCN1Cc2cc(O)c(OC)cc2-c2cccc(C)c21 [Hcj44-d]	DMSO		
COc1cc2c(=O)n(C)c3c(C(C)=O)cccc3c2cc1OC [Hgsy-57]	DMSO		
COc1cc2c(=O)n(C)c3c(OC)cccc3c2cc1OC [Hgsy-35]	DMSO	obvious effects	
CCn1c(=O)c2cc(OC)c(OC)cc2c2cccc(C=O)c21 [Hgsy-51]	DMSO		
CCN1Cc2cc(OC)c(OC)cc2-c2cccc(COC(C)=O)c21 [Hgsy-47]	DMSO		
CCCCN1Cc2cc(OC)c(OC)cc2-c2cccc(C(C)O)c21 (centres unmarked) [Hgsy-55]	DMSO		
COc1ccc2c(c1)CN(C)c1c(C)cccc1-2 [Hcj15]	DMSO		
CCn1c(=O)c2cc(OC)ccc2c2cccc(C(C)O)c21 (centres unmarked) [Hgsy-62]	DMSO		
C=Cc1cccc2c3ccc(OC)cc3c(=O)n(CC)c12 [Hgsy-67]	DMSO		
C#CCOc1ccc2c(c1)CN(C)c1c(C)cccc1-2 [Hcj16d-a]	DMSO		
Cc1cccc2c1N(C)Cc1cc(OCc3cc(C)n(C)n3)ccc1-2 [Hcj221d]	DMSO		

Reference: patent US20200385396A1, “Compond for treatment or prevention of obesity or diseases related to obesity, and application thereof” (SHANGHAI INSTITUTES FOR BIOLOGICAL SCIENCES, CHINESE …, priority 2017, published 2020)
